{
  "source": "patent US8193333B2",
  "about": "“Cancer therapy using Bcl-Xl-specific siNA” (Centre Regional de Lutte Contre le Cancer-Centre Francois …, priority 2006, dated 2012)",
  "key": {"[1]": {"test_system": "Bcl-XL mRNA", "assay": "RT-PCR of Bcl-XL mRNA in SKOV3 cells after siRNA transfection", "format": "cell-based, human", "details": "72 h after transfection, FIG. 1A", "experimental": "(§1) The siRNA duplexes were transfected according to the recommended procedure by using the Oligofectamine Reagent and Opti-MEM medium (INVITROGEN LIFE TECHNOLOGIES). 30-40% confluent cells were transfected in 25 cm^2 flasks with different concentrations of siXL1, siRNA Mcl-1 or siRNA control and incubated at 37° C., 5% CO2 for 4 hours. Next, 20% fetal bovin serum was added to reach a final concentration of 10% foetal bovin serum in the 25 cm^2 flask.\nOne μg of total RNA, extracted by RNAeasy kit (QIAGEN), was reverse-transcripted with 200 units Omniscript reverse transcriptase (QIAGEN) in first strand reaction conditions recommended by the manufacturer. The targeted cDNA were amplified using the following pair of primers, Bcl-XL/S forward 5′-[…]-3′ (SEQ ID NO: 11) and Bcl-XL/S reverse 5′-gtagagtggatggtcagtg-3′ (SEQ ID NO:12; Bargou et al., Int. J. Cancer, 1995, 16, 854-859), and amplified under the following cycling conditions: pre-incubation 94° C. for 5 min then 94° C. for 40 sec, 58° C. for 60 sec and 72° C. for 40 sec for 30 cycles, post-incubation 72° C. for 3 min within a Mastercycleur Gradient (EPPENDORF). The use of these primers allows the migration of Bcl-Xs and Bcl-XL PCR products as two distinct bands of respectively 576 and 765 bp."}, "[2]": {"test_system": "Mcl-1 protein", "assay": "Western blot of Mcl-1 protein expression in SKOV3 cells", "format": "cell-based, human", "details": "FIG. 11B", "experimental": "as §1\nCells were rinsed with ice cold PBS and lysed in 150 mM NaCl, 50 mM Tris-HCl pH 8, 1% Triton X100, 4 mM PMSF, 2 mM Aprotinin, 5 mM EDTA, 10 mM NaF, 10 mM NaPPi, 1 mM Na3VO4 for 30 min on ice. Lysates were clarified by centrifugation at 10000 g for 10 min at 4° C. and protein concentrations were determined using the Bradford assay (BIO-RAD). Equal amounts of total cellular protein (20 μg) were resolved in a Bis-tris-HCL buffered (pH 6.4) 4-12% polyacrylamide gel (NuPAGE® Novex® 4-12% Bis-tris gel, INVITROGEN) for 35 min at 200V and electrophoretically transferred on a PVDF membrane (MILLIPORE) for 75 min at 30V. The membrane was blocked for 1 hour at room temperature in T-TBS (132 mM NaCl, 20 mM Tris-HCl pH 7.6, 0.05% Tween 20) supplemented with 5% non-fat dry milk. […] After 3 washes with T-TBS and one with TBS, the immunoreactivity was detected by enhanced chemiluminescence (ECL kit, AMERSHAM)."}, "[3]": {"test_system": "intraperitoneal SKOV3 human ovarian adenocarcinoma", "assay": "Survival of nude mice bearing intraperitoneal SKOV3 tumours", "format": "in vivo, Swiss/nude mice", "experimental": "4-week-old female Swiss/nude mice were obtained from CHARLES-RIVER LABORATORIES and maintained in a pathogen-free environment. The mice were fed a standard laboratory diet and tap water ad libitum and kept a 23±1° C. with a 12 h light/dark cycle. Animal experiments in the present study were performed in compliance with the guidelines of the Federation of european laboratory animal science associations.\n6-8 weeks old mice were implanted intraperitoneally with 2×10^7 ovarian adenocarcinoma SKOV3 cells. As described previously, this model reflects the i.p growth pattern of advanced ovarian cancer (Louis et al, Cancer Gene Therapy, 2006, 13, 367-374).\nTwenty one days after tumour implantation, mice were allocated to one of the eight treatment groups (10 mice per group) summarized in Table II: • Group 1 comprised untreated animals. • Group 2 received intraperitoneal injection of 4 μg/kg cisplatin in 1 ml 0.9% NaCl solution. • Group 3 received intraperitoneal injection of 25 μg/kg control siRNA in 1 ml 0.9% NaCl. • Group 4 received intraperitoneal injection of 25 μg/kg Bcl-XL siRNA in 1 ml 0.9% NaCl. • Group 5 received intraperitoneal injection of 25 μg/kg control siRNA in 1 ml 0.9% NaCl and the following day 4 μg/kg of cisplatin in 1 ml 0.9% NaCl solution. • Group 6 received intraperitoneal injection of 4 μg/kg of cisplatin in 1 ml 0.9% NaCl solution and the following day 25 μg/kg control siRNA in 1 ml 0.9% NaCl. • Group 7 received intraperitoneal injection of 25 μg/kg Bcl-XL siRNA in 1 ml 0.9% NaCl and the following day 4 μg/kg of cisplatin in 1 ml 0.9% NaCl solution. • Group 8 received intraperitoneal injection of 4 μg/kg of cisplatin in 1 ml 0.9% NaCl solution and the following day 25 μg/kg Bcl-XL siRNA in 1 ml 0.9% NaCl.\nThe same treatment was repeated one month later. Mice were killed and autopsied when considered as moribund. Organs and tumours were formalin-fixed and paraffin-embedded for histological examination. At the end of the experiment, all surviving animals were sacrificed, and histological examination was performed in order to detect residual tumour nodes."}},
  "data": [
    {"substance": "siXL1: double-stranded siRNA blocking Bcl-XL expression; sense 5′-auuggugagucggaucgcatt-3′ (SEQ ID NO: 5), anti-sense 5′-ugcgauccgacucaccaautt-3′ (SEQ ID NO: 6) (sense AUUGGUGAGUCGGAUCGCATT; antisense UGCGAUCCGACUCACCAAUTT; chemistry not given here)", "values": [
      {"measurement": "Bcl-XL mRNA level (RT-PCR)", "setting": "[1]", "result": "greatly reduces"},
      {"measurement": "dose dependence of extinction of Mcl-1 protein expression", "setting": "[2]", "result": "dose-dependent"},
      {"measurement": "mice that die in the same interval as the control mice", "setting": "[3]; group treated with siXL1", "result": 50, "unit": "%"},
      {"measurement": "mice with no residual tumors at autopsy after 150 days", "setting": "[3]; group treated with siXL1", "result": 50, "unit": "%"},
      {"measurement": "duration of complete regression of the pre-established tumor after tumor cells implantation", "setting": "[3]; low dose, mice implanted with human chemoresistant tumor cells", "result": "at least 5 months"},
      {"measurement": "survival at 130 days", "setting": "[3]; naked siRNA 25 μg/kg intraperitoneal, 2 injections at 28 days interval, FIG. 15", "result": 60, "unit": "%"},
      {"measurement": "effect on mice survival", "setting": "[3]; siRNA 25 μg/kg, cisplatin 4 μg/kg intraperitoneal, treatment repeated one month later, FIG. 15", "result": "increases considerably"}
    ]}
  ]
}
